What was measured:
PLK4 (h) = PLK4 (h) (Homo sapiens, UniProt O00444); experiment: PLK-4 human kinase inhibition, scintillation proximity assay (SPA); type: biochemical; details: read-out: PLK4 pIC50 (converted)
AuroraB (h) = AuroraB (h) (Homo sapiens, UniProt Q96GD4); experiment: Aurora-B human kinase inhibition, SPA; type: biochemical; details: read-out: AuroraB pIC50 (converted)
Procedure, shortened: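 SPA with biotinylated peptide (3 μM) in 60 mM Hepes pH 7.5, Mg/Mn 3 mM each, 0.5 μM ATP plus [γ-33P]ATP, AuroraB at 0.5 μg/ml. The reaction runs 60 min at room temperature and is stopped with EDTA and streptavidin PVT beads. 33P-substrate is read by scintillation imaging.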

CDK1/CyclinB (h) = CDK1/CyclinB (h) (Homo sapiens, UniProt P06493); experiment: CDK1/CyclinB human kinase inhibition, Invitrogen's FRET assay (Z'lyte); type: biochemical; details: read-out: CDK1 pIC50 (converted)
Procedure, shortened: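 Z'lyte FRET assay: human CDK1/CyclinB (0.2 μg/ml) with 2 μM Ser/Thr peptide 12 and 10 μM ATP in 50 mM Hepes pH 7.5, MgCl2, EGTA, Brij-35, 60 min at room temperature. Protease development 60 min, then emission ratio 460/538 nm read with excitation at 390 nm.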

MDA-MB-231 = experiment: Cellular proliferation assay (Alamar blue), MDA-MB-231; type: cell-based; details: Homo sapiens, 10% FCS, 72 hours with compound, Alamar blue 24 h, read-out: MDA/MB231 (cellular proliferation assay, Table 4) (converted)
Procedure, shortened: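 Cells were seeded in medium with 10% FCS at 37° C, 5% CO2, left 24 h without compound, then exposed to compounds for 72 h. Viability was read with Alamar blue (resazurin 9 μg/ml, K-ferrocyanide and K-ferricyanide 90 μM each), 6 h for U87-MG, 4 h for HCT-116, 24 h for A2780 and MDA-MB-231.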

CDK1/CyclinB (h), sequence (P06493 whole entry): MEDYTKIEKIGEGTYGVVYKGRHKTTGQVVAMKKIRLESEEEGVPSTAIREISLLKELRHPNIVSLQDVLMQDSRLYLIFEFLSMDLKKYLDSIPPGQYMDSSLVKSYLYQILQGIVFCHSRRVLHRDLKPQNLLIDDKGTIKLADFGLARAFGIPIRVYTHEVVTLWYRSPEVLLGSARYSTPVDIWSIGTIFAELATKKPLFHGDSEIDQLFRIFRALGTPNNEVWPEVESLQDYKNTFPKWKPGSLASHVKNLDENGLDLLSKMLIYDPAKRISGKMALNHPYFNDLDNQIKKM
CDK1/CyclinB (h), sequence (P14635 whole entry partner): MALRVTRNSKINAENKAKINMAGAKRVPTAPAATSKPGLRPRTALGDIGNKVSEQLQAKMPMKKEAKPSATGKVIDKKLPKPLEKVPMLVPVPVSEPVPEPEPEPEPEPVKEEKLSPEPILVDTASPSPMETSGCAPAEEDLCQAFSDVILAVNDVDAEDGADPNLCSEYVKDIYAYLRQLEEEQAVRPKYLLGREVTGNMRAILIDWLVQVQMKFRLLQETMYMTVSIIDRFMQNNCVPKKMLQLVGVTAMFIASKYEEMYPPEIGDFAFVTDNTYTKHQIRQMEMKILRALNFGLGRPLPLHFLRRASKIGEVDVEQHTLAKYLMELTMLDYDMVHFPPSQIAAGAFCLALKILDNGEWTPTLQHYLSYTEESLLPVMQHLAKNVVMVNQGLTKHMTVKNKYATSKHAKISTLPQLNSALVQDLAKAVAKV
PLK4 (h), sequence (O00444 whole entry): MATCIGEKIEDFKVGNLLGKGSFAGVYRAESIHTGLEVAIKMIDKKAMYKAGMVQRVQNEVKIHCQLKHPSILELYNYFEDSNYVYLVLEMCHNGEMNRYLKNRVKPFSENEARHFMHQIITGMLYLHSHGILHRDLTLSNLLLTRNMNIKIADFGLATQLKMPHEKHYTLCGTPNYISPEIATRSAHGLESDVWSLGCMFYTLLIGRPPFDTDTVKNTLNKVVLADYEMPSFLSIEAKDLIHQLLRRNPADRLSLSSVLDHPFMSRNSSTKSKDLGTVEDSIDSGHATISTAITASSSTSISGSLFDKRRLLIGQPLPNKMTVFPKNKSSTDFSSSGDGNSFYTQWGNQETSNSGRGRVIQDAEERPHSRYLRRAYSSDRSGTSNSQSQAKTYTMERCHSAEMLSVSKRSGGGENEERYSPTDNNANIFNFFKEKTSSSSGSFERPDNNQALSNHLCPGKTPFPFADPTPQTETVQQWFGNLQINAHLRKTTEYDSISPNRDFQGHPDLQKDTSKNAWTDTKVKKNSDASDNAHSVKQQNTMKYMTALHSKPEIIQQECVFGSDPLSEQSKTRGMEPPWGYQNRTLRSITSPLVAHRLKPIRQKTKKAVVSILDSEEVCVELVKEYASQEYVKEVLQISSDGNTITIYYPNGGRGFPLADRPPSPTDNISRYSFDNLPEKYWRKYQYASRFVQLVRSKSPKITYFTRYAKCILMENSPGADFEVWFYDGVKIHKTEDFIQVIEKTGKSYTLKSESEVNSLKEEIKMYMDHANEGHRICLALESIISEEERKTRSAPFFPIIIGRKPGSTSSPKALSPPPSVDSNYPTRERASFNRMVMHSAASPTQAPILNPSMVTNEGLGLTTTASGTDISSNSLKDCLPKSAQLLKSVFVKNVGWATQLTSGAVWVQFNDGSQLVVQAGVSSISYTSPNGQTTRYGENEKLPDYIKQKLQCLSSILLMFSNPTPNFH
AuroraB (h), sequence (Q96GD4 whole entry): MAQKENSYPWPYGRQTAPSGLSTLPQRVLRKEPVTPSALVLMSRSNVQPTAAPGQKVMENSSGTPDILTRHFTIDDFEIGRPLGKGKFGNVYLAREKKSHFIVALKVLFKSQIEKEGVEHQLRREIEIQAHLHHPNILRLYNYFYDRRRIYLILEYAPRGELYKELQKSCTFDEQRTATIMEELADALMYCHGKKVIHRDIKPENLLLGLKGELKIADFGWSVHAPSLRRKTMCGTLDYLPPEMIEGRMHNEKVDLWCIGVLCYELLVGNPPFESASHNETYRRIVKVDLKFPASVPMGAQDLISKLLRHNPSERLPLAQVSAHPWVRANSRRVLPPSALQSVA

| IC50 (PLK4 (h)) [µM] | IC50 (AuroraB (h)) [µM] | IC50 (CDK1/CyclinB (h)) [µM] | IC50 (MDA-MB-231) [µM] | SMILES |
| --- | --- | --- | --- | --- |
| 3.24 | 6.61 | > 10 | > 10 | COc1ccc2cc1CN(C)CCCNC(=O)[C@H](CO)NCc1cccc(c1)Nc1nccc-2n1 [Compound 118] |
| 3.89 | > 10 | > 10 | > 10 | COc1ccc2cc1CN(C)CCNC(=O)[C@H](CO)NCc1cc(Br)cc(c1)Nc1nccc-2n1 [Compound 119] |
| 8.71 | > 10 | 0.372 | > 10 | O=C1NCc2cccc(c2)-c2ccnc(n2)Nc2cccc(c2)CN2CCC1CC2 [Compound 124] |
| 1.26 | > 10 | > 10 | > 10 | CC(C)Nc1cc2cc(c1)Nc1nccc(n1)-c1ccc(cc1)CN(C)CCCNC(=O)CN1CCN(CC1)C2 [Compound 131] |
| 1.41 | > 10 | > 10 | > 10 | COc1cc2cc(c1)Nc1nccc(n1)-c1ccc(cc1)CN(C)CCNC(=O)CN1CCN(CC1)C2 [Compound 132] |
| 1.62 | > 10 | 4.79 | > 10 | CN1CCNC(=O)CN2CCN(CC2)Cc2cccc(c2)Nc2nccc(n2)-c2ccc(cc2)C1 [Compound 134] |
| 0.813 | 11 | 0.00363 | 0.501 | O=C1NCc2cc(ccc2N2CCOCC2)Nc2nccc(n2)-c2cccc(c2)CCCN2CCC[C@@H]12 [Compound 149] |
| 0.692 | 7.94 | > 10 | > 10 | COc1ccc2cc1CN(C)CCNC(=O)[C@@H]1CCCN1Cc1cc(cc(N3CCOCC3)c1)Nc1nccc-2n1 [Compound 152] |
| 2.04 | 6.61 | > 10 | > 10 | COc1cc2cc(c1)Nc1nccc(n1)-c1ccc(OC)c(c1)CN(C)CCNC(=O)[C@@H]1CCCN1C2 [Compound 162] |
| 2.45 | > 10 | > 10 | > 10 | COc1ccc2cc1CN(C)CCNC(=O)[C@@H]1CCCN1Cc1cc(NCCc3ccccc3)cc(c1)Nc1nccc-2n1 [Compound 163] |
| 2.82 | > 10 | > 10 | > 10 | COc1ccc2cc1CN(C)CCNC(=O)[C@@H]1CCCN1Cc1cc(cc(NC(C)C)c1)Nc1nccc-2n1 [Compound 165] |
| 3.55 | > 10 | > 10 | 6.46 | COc1ccc2cc1CN(C)CCCNC(=O)[C@@H]1CCCN1Cc1cc(NCCc3ccccc3)cc(c1)Nc1nccc-2n1 [Compound 167] |
| 3.55 | 2.57 | 8.13 | > 10 | CN1CCN(C)c2ccc(cn2)-c2ccnc(n2)Nc2cc(c3c(c2)OCO3)CN2CCC[C@H]2C1=O [Compound 168] |
| 5.01 | > 10 | > 10 | > 10 | COc1cc2cc(c1)Nc1nccc(n1)-c1ccc(OC)c(c1)CN(C)CCCNC(=O)[C@@H]1CCCN1C2 [Compound 171] |
| > 10 | > 10 | > 10 | > 10 | COc1ccc2cc1CN(C)CCNC(=O)[C@@H]1CCCN1Cc1cc(C#N)cc(c1)Nc1nccc-2n1 [Compound 181] |
| 0.692 | > 10 | 7.59 | > 10 | C[C@@H]1NCc2cc(ccc2N2CCOCC2)Nc2nccc(n2)-c2cccc(c2)CNC1=O [Compound 182] |
| 0.776 | > 10 | 0.398 | > 10 | C[C@@H]1NCc2cccc(c2)Nc2nccc(n2)-c2cccc(c2)CNC1=O [Compound 184] |
| 0.794 | > 10 | 4.79 | > 10 | O=C1NCc2cccc(c2)-c2ccnc(n2)Nc2cccc(c2)CN[C@H]1Cc1ccccc1 [Compound 185] |
| 1.02 | > 10 | > 10 | > 10 | C[C@@H]1NCc2ccc(Cl)c(c2)Nc2nccc(n2)-c2cccc(c2)CNC1=O [Compound 186] |
| 1.07 | > 10 | 0.646 | 7.94 | O=C1NCc2cccc(c2)-c2ccnc(n2)Nc2cccc(c2)CN[C@H]1CO [Compound 187] |
| 2.09 | > 10 | 9.12 | > 10 | O=C1NCc2cccc(c2)-c2ccnc(n2)Nc2cc(ccc2Cl)CN[C@H]1CO [Compound 188] |
| > 10 | > 10 | 5.62 | > 10 | O=C1NCc2cccc(c2)-c2ccnc(n2)Nc2cc(ccc2Cl)CN[C@H]1Cc1ccccc1 [Compound 189] |
| > 10 | > 10 | > 10 | > 10 | O=C1CN2CCN(CC2)Cc2ccc(cc2)Nc2nccc(n2)-c2cccc(c2)CN1 [Compound 193] |
| 1.12 | > 10 | > 10 | > 10 | O=C1CN2CCN(CC2)Cc2cc(ccc2N2CCOCC2)Nc2nccc(n2)-c2ccc(cc2)CN1 [Compound 194] |
| > 10 | > 10 | > 10 | > 10 | O=C1CN2CCN(CC2)Cc2ccc(Cl)c(c2)Nc2nccc(n2)-c2cccc(c2)CN1 [Compound 195] |
| > 10 | > 10 | > 10 | > 10 | O=C1CN2CCN(CC2)Cc2cccc(c2)Nc2nccc(n2)-c2cccc(c2)CN1 [Compound 196] |

| SMILES | IC50 (PLK4 (h)) [µM] | IC50 (AuroraB (h)) [µM] | IC50 (CDK1/CyclinB (h)) [µM] | IC50 (MDA-MB-231) [µM] |
| --- | --- | --- | --- | --- |
| CN1CCNC(=O)[C@H](CO)NCc2cccc(c2)Nc2nccc(n2)-c2ccc(cc2)C1 [Compound 114] | 1.2 | 7.08 | > 10 | > 10 |
| COc1cc2cc(c1)Nc1nccc(n1)-c1ccc(OC)c(c1)CN(C)CCNC(=O)CN1CCN(CC1)C2 [Compound 127] | 0.813 | 2 | > 10 | > 10 |
| COc1ccc2cc1CN(C)CCNC(=O)CN1CCN(CC1)Cc1cc(NCCc3ccccc3)cc(c1)Nc1nccc-2n1 [Compound 138] | 2.14 | > 10 | > 10 | 5.89 |
| COc1cc2cc(c1)Nc1nccc(n1)-c1ccc(OC)c(c1)CN(C)CCCNC(=O)CN1CCN(CC1)C2 [Compound 140] | 2.69 | > 10 | > 10 | > 10 |
| CC(C)Nc1cc2cc(c1)Nc1nccc(n1)-c1ccc(cc1)CN(C)CCCNC(=O)[C@@H]1CCCN1C2 [Compound 151] | 0.646 | > 10 | > 10 | > 10 |
| CN1CCNC(=O)[C@@H]2CCCN2Cc2cc(cc(N3CCOCC3)c2)Nc2nccc(n2)-c2ccc(cc2)C1 [Compound 154] | 0.813 | > 10 | > 10 | > 10 |
| COc1cc2cc(c1)Nc1nccc(n1)-c1ccc(cc1)CN(C)CCCNC(=O)[C@@H]1CCCN1C2 [Compound 156] | 0.912 | > 10 | > 10 | > 10 |
| O=C1NCCNCc2ccc(cc2)-c2ccnc(n2)Nc2ccc(N3CCOCC3)c(c2)CN2CCC[C@@H]12 [Compound 157] | 1.07 | 9.55 | > 10 | > 10 |
| COc1cc2cc(c1)Nc1nccc(n1)-c1ccc(cc1)CN(C)CCNC(=O)[C@@H]1CCCN1C2 [Compound 158] | 1.15 | > 10 | 8.71 | > 10 |
| CN1CCNC(=O)[C@@H]2CCCN2Cc2cccc(c2)Nc2nccc(n2)-c2ccc(cc2)C1 [Compound 160] | 1.55 | > 10 | > 10 | > 10 |
| C[C@@H]1NCc2ccc(cc2)Nc2nccc(n2)-c2cccc(c2)CNC1=O [Compound 190] | > 10 | > 10 | 6.46 | > 10 |
| O=C1NCc2cccc(c2)-c2ccnc(n2)Nc2ccc(cc2)CN[C@H]1Cc1ccccc1 [Compound 192] | > 10 | > 10 | > 10 | > 10 |

Reference: patent publication US8609836B2, “4-aryl-2-anilino-pyrimidines” (Janssen Pharmaceutica NV, priority 2008, dated 2013)
